Experimental findings from patent publication US10196391B2 (Hoffmann-La Roche Inc., priority 2014, dated 2019) are described below.

Each structure is given as a SMILES string.

The assay deals with HBsAg. As to the kind of experiment: HBsAg assay (CLIA) in HepG2.2.15 cells. The assay is classed as cell-based, HBV. As to conditions: Hepatitis B virus, HepG2.2.15, read-out: IC50 (HBsAg assay). How it is done:
HepG2.2.15 cells (Acs et al. Proc Natl Acad Sci USA, 84, (1987), 4641-4), a constitutively HBV-expressing cell line were cultured in DMEM+Glutamax-I medium (Invitrogen, Carlsbad, Calif., USA), supplemented with 10% fetal bovine serum (Invitrogen) and G418 (Invitrogen) at a final concentration of 200 mg/L and maintained in 5% CO2 at 37° C.
HepG2.2.15 cells were seeded in duplicate into white, 96-well plates at 1.5×10^4 cells/well. The cells were treated with a three-fold serial dilution series of the compounds in DMSO. The final DMSO concentration in all wells was 1% and DMSO was used as no drug control.
The HBsAg chemiluminescence immunoassay (CLIA) kit (Autobio Diagnostics Co., Zhengzhou, China, Catalog number: CL0310-2) was used to measure the levels of secreted HBV antigens semi-quantitatively. For the detection 50 μL/well culture supernatant was used and HBsAg was quantified using HBsAg chemiluminescence immunoassay (CLIA) kit (Autobio Diagnostics Co., Zhengzhou, China, Catalog number: CL0310-2), 50 μL of the supernatant was transferred to the CLIA assay plate and 50 μL of enzyme conjugate reagent was added into each well. The plates were sealed and gently agitated for 1 hour at room temperature. The supernatant-enzyme-mixture was discarded and wells were washed 6 times with 300 μL of PBS. The residual liquid was removed by plating the CLIA plate […] on absorbent tissue paper. 25 μL of substrates A and B were added to each well. Luminance was measured using a luminometer (Mithras LB 940 Multimode Microplate Reader) after 10 minutes incubation. Dose-response curves were generated and the IC50 value was extrapolated by using the E-WorkBook Suite (ID Business Solutions Ltd., Guildford, UK). The IC50 was defined as the compound concentration (or conditioned media log dilution) at which HBsAg secretion was reduced by 50% compared to the no drug control.
The compounds according to formula I were tested for their capacity to inhibit HBsAg as described herein.
As to `FC(F)Oc1cccc(N2CCc3nc(-c4ncccn4)ncc3C2)c1` [Example 63, 6-[3-(difluoromethoxy)phenyl]-2-pyrimidin-2-yl-7,8-dihydro-5H-pyrido[4,3-d]pyrimidine], the IC50 was 1940 nM.

Take `COc1ccc2ccc(N3CCc4nc(-c5ncccn5)ncc4C3)cc2n1` [Example 75, 6-(2-methoxy-7-quinolyl)-2-pyrimidin-2-yl-7,8-dihydro-5H-pyrido[4,3-d]pyrimidine]: the IC50 amounted to 2020 nM. Take `CNS(=O)(=O)c1ccc(N2CCc3nc(-c4ccccn4)ncc3C2)cc1` [Example 8, N-methyl-4-[2-(2-pyridyl)-7,8-dihydro-5H-pyrido[4,3-d]pyrimidin-6-yl]benzenesulfonamide]: the IC50 came to 4180 nM. As for `COc1cc([N+](=O)[O-])ccc1N1CCc2nc(-c3ccccn3)ncc2C1` [Example 34, 6-(2-methoxy-4-nitro-phenyl)-2-(2-pyridyl)-7,8-dihydro-5H-pyrido[4,3-d]pyrimidine], the IC50 was 874 nM. In the case of `O=[N+]([O-])c1ccccc1N1CCc2nc(-c3ccccn3)ncc2C1` [Example 33, 6-(2-nitrophenyl)-2-(2-pyridyl)-7,8-dihydro-5H-pyrido[4,3-d]pyrimidine] it was 390 nM. Take `COc1nc(N2CCc3nc(-c4ccccn4)ncc3C2)ncc1Cl` [Example 68, 6-(5-chloro-4-methoxy-pyrimidin-2-yl)-2-(2-pyridyl)-7,8-dihydro-5H-pyrido[4,3-d]pyrimidine]: the IC50 came out at 1470 nM. On to `O=S(=O)(c1ccc(N2CCc3nc(-c4ccccn4)ncc3C2)cc1)C(F)(F)F` [Example 12, 2-(2-pyridyl)-6-[4-(trifluoromethylsulfonyl)phenyl]-7,8-dihydro-5H-pyrido[4,3-d]pyrimidine], for which the IC50 turned out to be 13300 nM. Turning to `Cc1ccc(N2CCc3nc(-c4ccccn4)ncc3C2)cc1` [Example 47, 6-(p-tolyl)-2-(2-pyridyl)-7,8-dihydro-5H-pyrido[4,3-d]pyrimidine], the IC50 was 11400 nM. In the case of `COc1cc(N2CCc3nc(-c4ncccn4)ccc3C2)cc(F)c1F` [Example 97, 6-(3,4-difluoro-5-methoxy-phenyl)-2-pyrimidin-2-yl-7,8-dihydro-5H-1,6-naphthyridine] it was 16400 nM; in that of `COc1cc(C#N)cc(N2CCc3nc(-c4ncccn4)ncc3C2)c1` [Example 76, 3-methoxy-5-(2-pyrimidin-2-yl-7,8-dihydro-5H-pyrido[4,3-d]pyrimidin-6-yl)benzonitrile], 1510 nM.

Turning to `COc1cc(F)cc(N2CCc3nc(-c4ccccn4)ncc3C2)c1` [Example 91, 6-(3-fluoro-5-methoxy-phenyl)-2-(2-pyridyl)-7,8-dihydro-5H-pyrido[4,3-d]pyrimidine], the IC50 was 198 nM.

`COc1cc(N2CCc3nc(-c4ncccn4)ncc3C2)cc(F)c1F` [Example 26, 6-(3,4-difluoro-5-methoxy-phenyl)-2-pyrimidin-2-yl-7,8-dihydro-5H-pyrido[4,3-d]pyrimidine]: the IC50 is 61 nM.

For the compound `CCOc1ccc(N2CCc3nc(-c4ccccn4)ncc3C2)cc1F` [Example 54, 6-(4-ethoxy-3-fluoro-phenyl)-2-(2-pyridyl)-7,8-dihydro-5H-pyrido[4,3-d]pyrimidine], the IC50 was 3910 nM. Turning to `Fc1cc(N2CCc3nc(-c4ccccn4)ncc3C2)cc(F)c1OCc1ccccc1` [Example 64, 6-(4-benzyloxy-3,5-difluoro-phenyl)-2-(2-pyridyl)-7,8-dihydro-5H-pyrido[4,3-d]pyrimidine], the IC50 was 1820 nM. In the case of `CNc1nc(-c2ccccn2)nc2c1CN(c1ccc(S(C)(=O)=O)cc1)CC2` [Example 88] it was 26400 nM. On to `O=C(NCC(F)(F)F)c1cc(F)cc(N2CCc3nc(-c4ncccn4)ncc3C2)c1` [Example 104, 3-fluoro-5-(2-pyrimidin-2-yl-7,8-dihydro-5H-pyrido[4,3-d]pyrimidin-6-yl)-N-(2,2,2-trifluoroethyl)benzamide], for which the IC50 was found to be 1240 nM. In the case of `CCc1nc(-c2ccccn2)nc2c1CN(c1ccc(S(C)(=O)=O)cc1)CC2` [Example 86] it was 22100 nM; in that of `CCCOc1cc(N2CCc3nc(-c4ccccn4)ncc3C2)cc(F)c1F` [Example 22, 6-(3,4-difluoro-5-propoxy-phenyl)-2-(2-pyridyl)-7,8-dihydro-5H-pyrido[4,3-d]pyrimidine], 750 nM; in that of `COc1cc(F)nc(N2CCc3nc(-c4ncccn4)ncc3C2)c1` [Example 99, 6-(6-fluoro-4-methoxy-2-pyridyl)-2-pyrimidin-2-yl-7,8-dihydro-5H-pyrido[4,3-d]pyrimidine], 100 nM. As for `COC(=O)c1cc(Br)ccc1N1CCc2nc(-c3ccccn3)ncc2C1` [Example 16, methyl 5-bromo-2-[2-(2-pyridyl)-7,8-dihydro-5H-pyrido[4,3-d]pyrimidin-6-yl]benzoate], the IC50 turned out to be 13700 nM. Consider `CS(=O)(=O)c1ccc(N2CCc3nc(-c4ccccn4)ccc3C2)cc1` [Example 89, 6-(4-methylsulfonylphenyl)-2-(2-pyridyl)-7,8-dihydro-5H-1,6-naphthyridine], for which the IC50 was found to be 6720 nM.

`COc1cc(N2CCc3nc(-c4cnccn4)ncc3C2)cc(F)c1F` [Example 28, 6-(3,4-difluoro-5-methoxy-phenyl)-2-pyrazin-2-yl-7,8-dihydro-5H-pyrido[4,3-d]pyrimidine]: the IC50 is 455 nM. As to `COc1cc(F)c(F)cc1N1CCc2nc(-c3ccccn3)ncc2C1` [Example 27, 6-(4,5-difluoro-2-methoxy-phenyl)-2-(2-pyridyl)-7,8-dihydro-5H-pyrido[4,3-d]pyrimidine], the IC50 turned out to be 3160 nM. In the case of `CN(C)S(=O)(=O)c1ccc(N2CCc3nc(-c4ccccn4)ncc3C2)cc1` [Example 9, N,N-dimethyl-4-[2-(2-pyridyl)-7,8-dihydro-5H-pyrido[4,3-d]pyrimidin-6-yl]benzenesulfonamide], the IC50 was found to be 16900 nM. `COc1nc(-c2ccccn2)nc2c1CN(c1ccc(S(C)(=O)=O)cc1)CC2` [Example 81]: the IC50 came out at 11300 nM. In the case of `COc1ccc(N2CCc3nc(-c4ccccn4)ncc3C2)cc1` [Example 50, 6-(4-methoxyphenyl)-2-(2-pyridyl)-7,8-dihydro-5H-pyrido[4,3-d]pyrimidine] it was 21900 nM. On to `COc1cc(N2CCc3nc(-c4ncccn4)ncc3C2)cc(F)c1Cl` [Example 78, 6-(4-chloro-3-fluoro-5-methoxy-phenyl)-2-pyrimidin-2-yl-7,8-dihydro-5H-pyrido[4,3-d]pyrimidine], for which the IC50 worked out at 19000 nM.

On to `COc1ccc(-c2ncc3c(n2)CCN(c2ccc(S(C)(=O)=O)cc2)C3)nc1` [Example 5, 2-(5-methoxy-2-pyridyl)-6-(4-methylsulfonylphenyl)-7,8-dihydro-5H-pyrido[4,3-d]pyrimidine], for which the IC50 was found to be 42100 nM. `Fc1cc(N2CCc3nc(-c4ccccn4)ncc3C2)cc(OCc2ccccc2)c1F` [Example 20, 6-(3-benzyloxy-4,5-difluoro-phenyl)-2-(2-pyridyl)-7,8-dihydro-5H-pyrido[4,3-d]pyrimidine]: the concentration for half-maximal inhibition (IC50) stood at 2840 nM. Take `COCCOc1ccc(N2CCc3nc(-c4ccccn4)ncc3C2)cc1OC` [Example 57, 6-[3-methoxy-4-(2-methoxyethoxy)phenyl]-2-(2-pyridyl)-7,8-dihydro-5H-pyrido[4,3-d]pyrimidine]: the IC50 was 2170 nM.

For the compound `CCCc1nc(-c2ccccn2)nc2c1CN(c1ccc(S(C)(=O)=O)cc1)CC2` [Example 85], the IC50 was 8290 nM.

For `COc1cc(N2CCc3nc(-c4ncccn4)ncc3C2)cc(Cl)n1` [Example 116, 6-(2-chloro-6-methoxy-4-pyridyl)-2-pyrimidin-2-yl-7,8-dihydro-5H-pyrido[4,3-d]pyrimidine], the IC50 amounted to 530 nM. In the case of `CCCOc1ccc(N2CCc3nc(-c4ccccn4)ncc3C2)cc1F` [Example 55, 6-(3-fluoro-4-propoxy-phenyl)-2-(2-pyridyl)-7,8-dihydro-5H-pyrido[4,3-d]pyrimidine] it was 1180 nM.

Regarding `O=C(NCCCCCO)c1cc(F)cc(N2CCc3nc(-c4ncccn4)ncc3C2)c1` [Example 107, 3-fluoro-N-(5-hydroxypentyl)-5-(2-pyrimidin-2-yl-7,8-dihydro-5H-pyrido[4,3-d]pyrimidin-6-yl)benzamide], the IC50 came to 7120 nM. For `COc1cc(N2CCc3nc(-c4ccccn4)ncc3C2)ccc1C(=O)O` [Example 65, 2-methoxy-4-[2-(2-pyridyl)-7,8-dihydro-5H-pyrido[4,3-d]pyrimidin-6-yl]benzoic acid], the IC50 was 18400 nM. Turning to `Clc1ccc(N2CCc3nc(-c4ccccn4)ncc3C2)cc1Cl` [Example 49, 6-(3,4-dichlorophenyl)-2-(2-pyridyl)-7,8-dihydro-5H-pyrido[4,3-d]pyrimidine], the IC50 worked out at 1070 nM. On to `OCCOc1cc(N2CCc3nc(-c4ccccn4)ncc3C2)cc(F)c1F` [Example 94, 2-[2,3-difluoro-5-[2-(2-pyridyl)-7,8-dihydro-5H-pyrido[4,3-d]pyrimidin-6-yl]phenoxy]ethanol], for which the IC50 turned out to be 660 nM.

The term IC50 denotes the concentration that inhibits the measured activity by half.
